Test results as given in the supplement of paper PMC10307832.

How the values were obtained:
Test in all cases: relative viability (nuclei count vs DMSO), 5 days (fraction); higher = more cells survive
NCI-H1793 = system: NCI-H1793
How it was run: (§1)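 Values are medians from duplicate plates. Each reflects relative viability, defined as the nuclei count of treated wells over that of vehicle wells. Lung cancer cell lines in 1536-well plates were pin-tool dosed one day after seeding with one drug alone or with a fixed anchor-drug dose plus five library-drug doses (not always all listed) in √10 steps, then fixed, stained and imaged at 4× after 5 days.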

LCLC-97TM1 = system: LCLC-97TM1
How it was run: as §1

NCI-H1993 = system: NCI-H1993
How it was run: as §1

PC-3 [JPC-3] = system: PC-3 [JPC-3]
How it was run: as §1

NCI-H2009 = system: NCI-H2009
How it was run: as §1

NCI-H520 = system: NCI-H520
How it was run: as §1

NCI-H1755 = system: NCI-H1755
How it was run: as §1

NCI-H647 = system: NCI-H647
How it was run: as §1

NCI-H460 = system: NCI-H460
How it was run: as §1

SW 1573 = system: SW 1573
How it was run: as §1

SK-LU-1 = system: SK-LU-1
How it was run: as §1

NCI-H1944 = system: NCI-H1944
How it was run: as §1

ABC-1 = system: ABC-1
How it was run: as §1

EMC-BAC-2 = system: EMC-BAC-2
How it was run: as §1

NCI-H441 = system: NCI-H441
How it was run: as §1

NCI-H2126 = system: NCI-H2126
How it was run: as §1

NCI-H2347 = system: NCI-H2347
How it was run: as §1

PC-14 = system: PC-14
How it was run: as §1

NCI-H1666 = system: NCI-H1666
How it was run: as §1

NCI-H2170 = system: NCI-H2170
How it was run: as §1

NCI-H1975 = system: NCI-H1975
How it was run: as §1

NCI-H1355 = system: NCI-H1355
How it was run: as §1

NCI-H727 = system: NCI-H727
How it was run: as §1

O=c1[nH]c2ccccc2n1C1CCN(CCCC(c2ccc(F)cc2)c2ccc(F)cc2)CC1 [Pimozide] + Cc1nc(Nc2ncc(C(=O)Nc3c(C)cccc3Cl)s2)cc(N2CCN(CCO)CC2)n1 [Dasatinib] (partner 0.075 µM)
relative viability (NCI-H1793; first compound 0.253 µM): 0.388
relative viability (NCI-H1793; first compound 0.8 µM): 0.343
relative viability (NCI-H1793; first compound 2.53 µM): 0.391
relative viability (NCI-H1793; first compound 8 µM): 0.35
relative viability (LCLC-97TM1; first compound 0.08 µM): 0.94
relative viability (LCLC-97TM1; first compound 0.253 µM): 0.811
relative viability (LCLC-97TM1; first compound 0.8 µM): 0.797
relative viability (LCLC-97TM1; first compound 2.53 µM): 0.818
relative viability (LCLC-97TM1; first compound 8 µM): 0.626
relative viability (NCI-H1993; first compound 0.08 µM): 0.649
relative viability (NCI-H1993; first compound 0.253 µM): 0.597
relative viability (NCI-H1993; first compound 0.8 µM): 0.464
relative viability (NCI-H1993; first compound 2.53 µM): 0.664
relative viability (NCI-H1993; first compound 8 µM): 0.332
relative viability (PC-3 [JPC-3]; first compound 0.08 µM): 0.529
relative viability (PC-3 [JPC-3]; first compound 0.253 µM): 0.912
relative viability (PC-3 [JPC-3]; first compound 0.8 µM): 0.867
relative viability (PC-3 [JPC-3]; first compound 2.53 µM): 0.892
relative viability (PC-3 [JPC-3]; first compound 8 µM): 0.897
relative viability (NCI-H2009; first compound 0.08 µM): 0.307
relative viability (NCI-H2009; first compound 0.253 µM): 0.326
relative viability (NCI-H2009; first compound 0.8 µM): 0.328
relative viability (NCI-H2009; first compound 2.53 µM): 0.214
relative viability (NCI-H2009; first compound 8 µM): 0.188
relative viability (NCI-H520; first compound 0.08 µM): 0.216
relative viability (NCI-H520; first compound 0.253 µM): 0.184
relative viability (NCI-H520; first compound 0.8 µM): 0.185
relative viability (NCI-H520; first compound 2.53 µM): 0.176
relative viability (NCI-H520; first compound 8 µM): 0.225
relative viability (NCI-H1755; first compound 0.08 µM): 0.372
relative viability (NCI-H1755; first compound 0.253 µM): 0.446
relative viability (NCI-H1755; first compound 0.8 µM): 0.426
relative viability (NCI-H1755; first compound 2.53 µM): 0.456
relative viability (NCI-H1755; first compound 8 µM): 0.348
relative viability (NCI-H647; first compound 0.08 µM): 0.41
relative viability (NCI-H647; first compound 0.253 µM): 0.233
relative viability (NCI-H647; first compound 0.8 µM): 0.198
relative viability (NCI-H647; first compound 2.53 µM): 0.179
relative viability (NCI-H647; first compound 8 µM): 0.162
relative viability (NCI-H460; first compound 0.08 µM): 0.537
relative viability (NCI-H460; first compound 0.253 µM): 0.486
relative viability (NCI-H460; first compound 0.8 µM): 0.529
relative viability (NCI-H460; first compound 2.53 µM): 0.483
relative viability (NCI-H460; first compound 8 µM): 0.447
relative viability (SW 1573; first compound 0.08 µM): 0.522
relative viability (SW 1573; first compound 0.253 µM): 0.447
relative viability (SW 1573; first compound 0.8 µM): 0.5
relative viability (SW 1573; first compound 2.53 µM): 0.437
relative viability (SW 1573; first compound 8 µM): 0.692
relative viability (SK-LU-1; first compound 0.08 µM): 0.2
relative viability (SK-LU-1; first compound 0.253 µM): 0.21
relative viability (SK-LU-1; first compound 0.8 µM): 0.184
relative viability (SK-LU-1; first compound 2.53 µM): 0.186
relative viability (SK-LU-1; first compound 8 µM): 0.168
relative viability (NCI-H1944; first compound 0.08 µM): 0.212
relative viability (NCI-H1944; first compound 0.253 µM): 0.203
relative viability (NCI-H1944; first compound 0.8 µM): 0.183
relative viability (NCI-H1944; first compound 2.53 µM): 0.225
relative viability (NCI-H1944; first compound 8 µM): 0.197
relative viability (ABC-1; first compound 0.08 µM): 0.521
relative viability (ABC-1; first compound 0.253 µM): 0.48
relative viability (ABC-1; first compound 0.8 µM): 0.518
relative viability (ABC-1; first compound 2.53 µM): 0.388
relative viability (ABC-1; first compound 8 µM): 0.396
relative viability (EMC-BAC-2; first compound 0.08 µM): 0.351
relative viability (EMC-BAC-2; first compound 0.253 µM): 0.274
relative viability (EMC-BAC-2; first compound 0.8 µM): 0.331
relative viability (EMC-BAC-2; first compound 2.53 µM): 0.285
relative viability (EMC-BAC-2; first compound 8 µM): 0.218
relative viability (NCI-H441; first compound 0.08 µM): 0.86
relative viability (NCI-H441; first compound 0.253 µM): 0.724
relative viability (NCI-H441; first compound 0.8 µM): 0.605
relative viability (NCI-H441; first compound 2.53 µM): 0.387
relative viability (NCI-H441; first compound 8 µM): 0.521
relative viability (NCI-H2126; first compound 0.08 µM): 0.687
relative viability (NCI-H2126; first compound 0.253 µM): 0.548
relative viability (NCI-H2126; first compound 0.8 µM): 0.568
relative viability (NCI-H2126; first compound 2.53 µM): 0.607
relative viability (NCI-H2126; first compound 8 µM): 0.605
relative viability (NCI-H2347; first compound 0.253 µM): 0.34
relative viability (NCI-H2347; first compound 0.8 µM): 0.295
relative viability (NCI-H2347; first compound 2.53 µM): 0.349
relative viability (NCI-H2347; first compound 8 µM): 0.343
relative viability (PC-14; first compound 0.08 µM): 0.027
relative viability (PC-14; first compound 0.253 µM): 0.241
relative viability (PC-14; first compound 0.8 µM): 0.272
relative viability (PC-14; first compound 2.53 µM): 0.306
relative viability (PC-14; first compound 8 µM): 0.18
relative viability (NCI-H1666; first compound 0.08 µM): 0.752
relative viability (NCI-H1666; first compound 0.253 µM): 0.814
relative viability (NCI-H1666; first compound 0.8 µM): 0.82
relative viability (NCI-H1666; first compound 2.53 µM): 0.708
relative viability (NCI-H1666; first compound 8 µM): 0.684
relative viability (NCI-H2170; first compound 0.08 µM): 0.432
relative viability (NCI-H2170; first compound 0.253 µM): 0.475
relative viability (NCI-H2170; first compound 0.8 µM): 0.627
relative viability (NCI-H2170; first compound 2.53 µM): 0.555
relative viability (NCI-H2170; first compound 8 µM): 0.599
relative viability (NCI-H1975; first compound 0.08 µM): 0.415
relative viability (NCI-H1975; first compound 0.253 µM): 0.342
relative viability (NCI-H1975; first compound 0.8 µM): 0.345
relative viability (NCI-H1975; first compound 2.53 µM): 0.346
relative viability (NCI-H1975; first compound 8 µM): 0.294
relative viability (NCI-H1355; first compound 0.08 µM): 0.744
relative viability (NCI-H1355; first compound 0.253 µM): 0.722
relative viability (NCI-H1355; first compound 0.8 µM): 0.671
relative viability (NCI-H1355; first compound 2.53 µM): 0.672
relative viability (NCI-H1355; first compound 8 µM): 0.732
relative viability (NCI-H727; first compound 0.08 µM): 0.36
relative viability (NCI-H727; first compound 0.253 µM): 0.347
relative viability (NCI-H727; first compound 0.8 µM): 0.4
relative viability (NCI-H727; first compound 2.53 µM): 0.358
relative viability (NCI-H727; first compound 8 µM): 0.405
